In ChEMBL document CHEMBL4304789, “Design, Synthesis, and Biological Evaluation of 2,4-Imidazolinedione Derivatives as HDAC6 Isoform-Selective Inhibitors” (ACS Med Chem Lett, 2019):
Active and inactive are the calls of the source. No cut-off for these calls is given here.

Assays:
[1] = biological target: T1, Protein deacetylase HDAC6 (Homo sapiens, UniProt Q9UBN7); experiment: Inhibition of HDAC6 (unknown origin) using Ac-LeuGlyLys(Ac)-AMC as substrate preincubated for 5 mins followed by substrate addition and measured after 60 mins by fluorescence based assay
T1 sequence (Q9UBN7 whole entry): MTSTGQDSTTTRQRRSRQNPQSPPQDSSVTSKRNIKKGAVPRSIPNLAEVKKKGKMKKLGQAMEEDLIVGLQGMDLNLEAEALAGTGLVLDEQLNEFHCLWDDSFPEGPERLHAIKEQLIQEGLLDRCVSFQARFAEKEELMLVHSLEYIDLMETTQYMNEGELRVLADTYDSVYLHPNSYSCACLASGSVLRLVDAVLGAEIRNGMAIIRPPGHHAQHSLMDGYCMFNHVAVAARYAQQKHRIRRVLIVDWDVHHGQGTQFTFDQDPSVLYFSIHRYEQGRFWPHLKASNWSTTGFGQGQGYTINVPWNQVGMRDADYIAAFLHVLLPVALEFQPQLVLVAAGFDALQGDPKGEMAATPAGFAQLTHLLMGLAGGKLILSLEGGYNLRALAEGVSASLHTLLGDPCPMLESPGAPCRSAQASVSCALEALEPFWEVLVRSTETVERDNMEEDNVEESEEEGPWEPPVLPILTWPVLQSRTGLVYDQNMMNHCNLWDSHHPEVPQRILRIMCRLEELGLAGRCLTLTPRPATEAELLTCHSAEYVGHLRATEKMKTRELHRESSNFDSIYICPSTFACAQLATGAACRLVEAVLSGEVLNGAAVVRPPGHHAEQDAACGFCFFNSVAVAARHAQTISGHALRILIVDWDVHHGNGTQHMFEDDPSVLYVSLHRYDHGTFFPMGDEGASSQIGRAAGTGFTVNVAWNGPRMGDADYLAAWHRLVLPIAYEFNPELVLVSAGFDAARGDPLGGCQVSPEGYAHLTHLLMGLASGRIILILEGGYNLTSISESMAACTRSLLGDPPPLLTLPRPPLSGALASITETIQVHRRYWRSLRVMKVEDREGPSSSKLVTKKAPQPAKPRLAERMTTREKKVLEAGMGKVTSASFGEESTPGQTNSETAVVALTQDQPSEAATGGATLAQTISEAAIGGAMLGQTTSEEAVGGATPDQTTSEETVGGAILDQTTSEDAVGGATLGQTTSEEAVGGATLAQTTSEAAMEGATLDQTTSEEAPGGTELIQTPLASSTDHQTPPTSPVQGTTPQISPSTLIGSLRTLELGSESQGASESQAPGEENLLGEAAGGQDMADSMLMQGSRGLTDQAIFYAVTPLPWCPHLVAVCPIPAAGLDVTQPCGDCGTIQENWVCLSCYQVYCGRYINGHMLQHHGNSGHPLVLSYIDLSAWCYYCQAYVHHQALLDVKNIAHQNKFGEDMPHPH

[2] = biological target: Histone deacetylase (Homo sapiens) (UniProt Q13547+O15379+Q9UBN7+Q92769+Q9UQL6+Q8WUI4+Q9BY41+Q96DB2+P56524+Q9UKV0+Q969S8); conditions: at 0.08 to 1.6 µM
Description: Inhibition of HDAC in human HL60 cells assessed as increase in acetylation of H3 at 0.08 to 1.6 uM incubated for 24 hrs by western blot analysis

| IC50 [1] [nM] | inhibition [2] | Compound |
| --- | --- | --- |
| 16.5 |  | O=C(CCC1C(=O)N(c2ccc(Cl)cc2)C(=O)N1Cc1ccc(Br)cc1)NCc1ccc(C(=O)NO)cc1 (centres undefined) |
| > 40 |  | O=C(CCC1C(=O)N(c2ccc(Cl)cc2)C(=O)N1Cc1ccccc1)Nc1cccc(C(=O)NO)c1 (centres undefined) |
| 12.6 |  | CCCN1C(=O)N(c2ccc(Cl)cc2)C(=O)C1CCC(=O)Nc1ccc(C(=O)NO)cc1 (centres undefined) |
| 17 |  | Cc1ccc(CN2C(=O)N(C3CCCCC3)C(=O)C2CCC(=O)NCc2ccc(C(=O)NO)cc2)cc1 (centres undefined) |
|  | Active | O=C(CCCCCCNC(=O)c1cnc(N(c2ccccc2)c2ccccc2)nc1)NO |
| 9.8 |  | O=C(CCC1C(=O)N(Cc2ccccc2)C(=O)N1Cc1ccc(Br)cc1)Nc1ccc(C(=O)NO)cc1 (centres undefined) |
| > 40 |  | Cc1ccc(CN2C(=O)N(c3ccc(Cl)cc3)C(=O)C2CCC(=O)Nc2cccc(C(=O)NO)c2)cc1 (centres undefined) |
| 10.3 |  | Cc1ccc(CN2C(=O)N(C3CCCCC3)C(=O)C2CCC(=O)Nc2ccc(C(=O)NO)cc2)cc1 (centres undefined) |
| 12.7 |  | O=C(CCC1C(=O)N(c2ccc(Cl)cc2)C(=O)N1Cc1ccccc1)NCc1ccc(C(=O)NO)cc1 (centres undefined) |
| 13.6 |  | O=C(CCC1C(=O)N(c2ccccc2)C(=O)N1Cc1ccc(Br)cc1)NCc1ccc(C(=O)NO)cc1 (centres undefined) |
| > 40 |  | CCCN1C(=O)N(C2CCCCC2)C(=O)C1CCC(=O)Nc1ccc(C(=O)NO)cc1 (centres undefined) |
| 18.9 |  | Cc1ccc(CN2C(=O)N(c3ccc(Cl)cc3)C(=O)C2CCC(=O)NCc2ccc(C(=O)NO)cc2)cc1 (centres undefined) |
| 11.8 |  | CN1C(=O)N(c2ccc(Cl)cc2)C(=O)C1CCC(=O)NCc1ccc(C(=O)NO)cc1 (centres undefined) |
| 7 |  | CN1C(=O)N(c2ccc(Cl)cc2)C(=O)C1CCC(=O)Nc1ccc(C(=O)NO)cc1 (centres undefined) |
